Laboratory results as given in patent US20190017999A1, “IN VITRO SKIN IMMUNE SYSTEM SIMULATION SYSTEM” (Seoul National University R&DB Foudation, priority 2015, published 2019).
“Also recorded” adds a separate entry of the source.

B1: IL-1a: typical factor occurring in the peritumoral environment and inflammatory conditions (protein, UniProt P01583 113-271, looked up)
Interleukin-1 alpha: SAPFSFLSNVKYNFMRIIKYEFILNDALNQSIIRANDQYLTAAALHNLDEAVKFDMGAYKSSKDDAKITVILRISKTQLYVTAQDEDQPVLLKEMPEIPKTITGSETNLLFFWETHGTKNYFTSVAHPNLFIATKQDYWVCLAGGPPSITDFQILENQA

Assays:
Format in all cases: cell-based, human
[1] = tested on: blood vessels and pericytes (HUVEC-pericyte co-culture); assay: Response of co-cultured blood vessels and pericytes to added factors; conditions: factor added to blood vessel-pericyte co-culture of Example 5; compared to control group (FIG. 13)
[2] = tested on: VE-cadherin; assay: VE-cadherin immunostaining of cell-cell junctions in microvessels; conditions: 5 ng/ml TNF-α-treated microvessels versus control microvessels (FIG. 5B)
Experimental: (§1) Human umbilical vein endothelial cells (HUVEC, Lonza) were cultured in endothelial cell growth medium (EGM-2, Lonza). Normal human lung fibroblasts (LF, Lonza) were cultured in fibroblast growth medium (FGM-2, Lonza). Human glioblastoma cells (U87MG, ATCC, Virginia) were cultured in DMEM medium supplemented with 10% fetal bovine serum (FBS), penicillin (100 U/ml) and streptomycin (100 U/ml). MDA-MA-231 cells were purchased from the ATCC (Manassas, Va.). MDA-MB-231 cells were transfected with a pEGFP plasmid, and cells were selected using 1 mg/ml G418 (A.G. scientific, Inc.). […]
For microvascular DIC (Differential Interference Contrast Microscope) imaging, the Nikon AE31 microscope was used. […] Confocal images were analyzed using IMARIS software (Bitplane, Switzerland). For fluorescence imaging, FITC-dextran-injected samples were imaged using the IX81 inverted microscope (Olympus).
As a vessel to assess the transendothelial migration of MDA-MB-231 cancer cells, the microvessel obtained in the present invention was used. […] The number of cancer cells intravasated into the microvessels was manually counted. […] In addition, the effect of TNF-α on cancer cell intravasation was analyzed. the rate of intravasation with or without TNF-α treatment was compared (n=7 chips per condition). […]

[3] = tested on: MDA-MB-231 cancer cells intravasating into microvessels; assay: Cancer intravasation assay in microfluidic chip
Experimental: as §1, with “Inc.). MDA-MA-231 GFP cells obtained from monoclones were incubated in RPMI1640 (WELGENE, Korea) supplemented with 10% fetal bovine serum, 1% penicillin/streptomycin (Gibco, BRL) and 250 μg/ml G418 (A.G. scientific, Inc.).” for “Inc.).”
(§2) For the quantification of cancer angiogenesis, sprout area and the number of sprouts were manually quantified by using Image J. For quantification of cancer intravasation, the microvessels were stained with CD31 and fluorescence imaged, and cancer cells at the apical side of the microvessel were manually counted using the IMARIS software.
As a vessel to assess the transendothelial migration of MDA-MB-231 cancer cells, the microvessel obtained in the present invention was used. […] The number of cancer cells intravasated into the microvessels was manually counted. […]

[4] = tested on: microvessels (HUVEC); assay: Microvessel permeability coefficient by time-lapse FITC-dextran imaging; conditions: 5 ng/ml TNF-α over 24 h
Experimental: as §1
To quantify the success rate of the smooth and continuous boundary of microvessels, the length of the vessel boundary was measured, and compared with the straight-line length of the blood vessel channel along the microvessel by use of image J. When the boundary length value was within ±10% of the linear length of the vascular channel, the chip was regarded as success. […] The acquired time-lapse image was analyzed using Image J, and the permeability coefficient was calculated using Equation 1 below: […]
The present inventors introduced 20 kDa FITC-dextran solution into the microvessel to verify the patency of the lumen, and visualized the behavior of the lumen using fluorescence microscopy. […] The present inventors analyzed the junctions by fluorescent immunostaining for claudin-5 and ZO-1 (FIGS. 3C and 3D). […]

[5] = tested on: HUVEC microvessels with U87MG cells; assay: Cancer angiogenesis assay in microfluidic chip (angiogenic sprouting from microvessels induced by U87MG cells); conditions: bevacizumab 500 μg/ml
Experimental: Human umbilical vein endothelial cells (HUVEC, Lonza) were cultured in endothelial cell growth medium (EGM-2, Lonza). Normal human lung fibroblasts (LF, Lonza) were cultured in fibroblast growth medium (FGM-2, Lonza). Human glioblastoma cells (U87MG, ATCC, Virginia) were cultured in DMEM medium supplemented with 10% fetal bovine serum (FBS), penicillin (100 U/ml) and streptomycin (100 U/ml). MDA-MA-231 cells were purchased from the ATCC (Manassas, Va.). MDA-MB-231 cells were transfected with a pEGFP plasmid, and cells were selected using 1 mg/ml G418 (A.G. scientific, Inc.). MDA-MA-231 GFP cells obtained from monoclones were incubated in RPMI1640 (WELGENE, Korea) supplemented with 10% fetal bovine serum, 1% penicillin/streptomycin (Gibco, BRL) and 250 μg/ml G418 (A.G. scientific, Inc.). All cells were incubated in a humidified incubator at 37° C. under 5% CO2. For immunostaining, endothelial cells were imaged using mouse monoclonal antibodies specific for human ZO-1 (Alexa Fluor594, clone ZO1-1A12, molecular probe), CD31 ([…], clone WM59, Biolegends), VE-cadherin (eBioscience) and claudin-5 (Invitrogen), and the nucleus was stained with Hoechst 33342 (molecular probe). Bevacizumab (Avastin, Genentech) was diluted to 500 μg/ml, and microvessels introduced with cancer were treated with the dilution in cancer angiogenesis experiments. Recombinant human TNF-alpha (PetroTech) was diluted to 5 ng/ml, and microvessels were treated with the dilution at 24 hours before introduction of cancer. […]
as §2
The present inventors analyzed the angiogenic potential of cancer cells by using the microvessels having a smooth vessel wall. […]

[6] = 3 days after introduction of U87MG cells, versus U87MG without bevacizumab

Molecule	response of pericytes and blood vessels [1]	VE-cadherin junction morphology [2]	rate of cancer intravasation relative to control ([3]; 5 ng/ml TNF-α 24 hours before introduction of MDA-MB-231 cells, n=7 chips per condition) [fold]	rate of cancer intravasation (in words) ([3]; TNF-α-treated microvessels compared with control experiment, p<0.0005)	permeability of TNF-α-treated microvessels ([4]; mean±standard error, n=5 chips)	permeability relative to normal condition ([4]; versus normal condition) [fold]	coverage area of sprouts [5, 6]	number of sprouts [5, 6]	microvascular sprouts / vessel boundary in micrographs ([5]; microscopic images 3 days after injection of cancer cells (FIG. 4A))
TNF-α	pericytes sprouted out from the blood vessels and formed many filopodia	disrupted and pleated form; also recorded: disrupted continuity and wrinkled morphology	3	very high rate of cancer intravasation	2.22±0.67×10^−6 cm/s	1.4	–	–	–
bevacizumab: anti-vascular endothelial growth factor (anti-VEGF) antibody, Avastin, Genentech	–	–	–	–	–	–	significantly reduced; also recorded: drastically decreasing	significantly reduced; also recorded: drastically decreasing	greatly reduced; also recorded: flat boundary without angiogenic sprouts
B1	pericytes sprouted out from the blood vessels and formed many filopodia	–	–	–	–	–	–	–	–
